The nature of data set [1]: Membrane permeability experiment (PAMPA Evolution). The format is in vitro ADME. Conditions: artificial lipid GIT-0, pH 4.0, 5.0, 6.2 and 7.4, marker metoprolol. The method, then:
In the development of pharmaceuticals, membrane permeability is an important factor to consider from the viewpoint of relationship with the bodily absorption of a medicament to be administered orally. Compounds having high membrane permeability are expected to feature satisfactory absorption by the intestinal tract (see Pharmaceutical Research (2002) Vol. 19, No. 7, 921-925.)
A membrane permeability test was conducted using PAMPA Evolution™ (pION INC.) in accordance with a modified version of the recommended protocol of pION INC. To be more specific, solutions of an assay compound (i.e., a DMSO solution of the compound as diluted by being added to system solutions that had been adjusted to prescribed pHs (4.0, 5.0, 6.2, and 7.4)) were prepared and added to the lower compartment (donor) of a sandwich plate having a lipid bilayer membrane formed of an artificial lipid (GIT-0). An acceptor sink buffer was added to the upper compartment (acceptor) and after the lapse of a prescribed period, the cumulative permeation of the compound was measured by performing UV spectroscopy on the solutions in the donor and acceptor, and the membrane permeability coefficient Pe (×10^−6 cm/sec) was calculated to assay the membrane permeability of the compound.

Data set [2] deals with T1, human type 1 glycine transporter (GlyT1) (Homo sapiens, UniProt P48067).
T1 construct: Used in the experiment were T98G cells (glioma cells) developing a human type 1 glycine transporter (GlyT1); endogenous in cells; host or cells: T98G human glioma cells
T1 sequence (P48067 1-706): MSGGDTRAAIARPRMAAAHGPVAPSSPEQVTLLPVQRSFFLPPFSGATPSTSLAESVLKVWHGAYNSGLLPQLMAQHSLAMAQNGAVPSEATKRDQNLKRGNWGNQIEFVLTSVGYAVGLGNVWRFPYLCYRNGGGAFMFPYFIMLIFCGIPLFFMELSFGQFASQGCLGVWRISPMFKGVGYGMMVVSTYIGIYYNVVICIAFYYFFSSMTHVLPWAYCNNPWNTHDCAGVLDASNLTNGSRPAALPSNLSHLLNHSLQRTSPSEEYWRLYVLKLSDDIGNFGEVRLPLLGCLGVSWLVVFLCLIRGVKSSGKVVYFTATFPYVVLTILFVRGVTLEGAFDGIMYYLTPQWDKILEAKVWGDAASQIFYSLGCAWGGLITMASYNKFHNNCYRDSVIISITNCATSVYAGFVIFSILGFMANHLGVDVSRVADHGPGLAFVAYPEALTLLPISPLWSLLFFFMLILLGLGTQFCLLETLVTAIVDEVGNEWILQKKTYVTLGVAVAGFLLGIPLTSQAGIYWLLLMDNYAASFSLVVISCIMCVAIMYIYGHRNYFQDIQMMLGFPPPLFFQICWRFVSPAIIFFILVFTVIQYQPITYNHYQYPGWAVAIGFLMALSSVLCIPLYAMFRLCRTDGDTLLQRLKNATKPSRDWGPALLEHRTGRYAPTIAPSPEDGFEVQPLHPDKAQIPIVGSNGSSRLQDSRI
The data set can be described thus: Glycine uptake inhibition experiment ([3H] glycine uptake in T98G cells). In kind it is cell-based. Conditions: [3H] glycine 250 nM, read-out: IC50 (glycine uptake inhibiting activity). The method, then: A glycine uptake inhibition experiment was conducted in accordance with the method described in Neuron, 8, 927-935, 1992. Used in the experiment were T98G cells (glioma cells) developing a human type 1 glycine transporter (GlyT1). The T98G cells were seeded in a 96-well plate at a density of 2.0×10^4 cells per well and cultured overnight in a CO2 incubator. The test substance was first dissolved in a 100% DMSO solution and then dissolved in a 10 mM HEPES buffer solution (pH 7.4) supplemented with 150 mM sodium chloride, 1 mM calcium chloride, 5 mM potassium chloride, 1 mM magnesium chloride, 10 mM glucose, and 0.2% bovine serum albumin. After removing the cell culture medium, the test substance was subjected to a 10-min pretreatment. Thereafter, the test substance and [^3H] glycine (final concentration: 250 nM) were added to the cells and reaction was performed at room temperature for 15 minutes. After the end of the reaction, the extracellular fluid was aspirated with a manifold to remove the excess marker glycine present outside of the cells; thereafter, the cells were lysed with an aqueous solution of 0.5 M sodium hydroxide. The glycine content in the cells was determined by measuring the radioactivity in the cell lysate with a liquid scintillation counter. With the amount of glycine uptake in the presence of 10 μM ALX5407 being referred to as the nonspecific uptake, the amount of specific uptake was calculated by subtracting the amount of nonspecific uptake from the total amount of uptake in the absence of 10 μM ALX5407. In addition, glycine uptake inhibiting activity (IC50) was calculated from an inhibition curve for the concentration of the test substance ranging from 10^−9 to 10^−5 M.

Where two headings read alike, the source gives them in different places.

Here are results for 24 compounds from patent publication US8623898B2, “Glycine transporter inhibiting substances” (Taisho Pharmaceutical Co., Ltd., priority 2009, dated 2014).

As to `Cn1cnc(C(=O)N(Cc2cccc(OC(F)(F)F)c2)CC2CCOCC2)c1` [Compound 2], the “membrane permeability coefficient Pe compared with metoprolol” value in data set [1] is recorded as “higher Pe values than the high permeability marker compound metoprolol”. Moreover, the half-maximal inhibitory concentration (IC50) in data set [2] (15 min, room temperature) is 34.5 nM; in data set [2], under 100 nM.

Consider `O=C(c1cn(C2CC2)cn1)N(Cc1cccc(OC(F)(F)F)c1)C1CCOCC1` [Compound 12], for which the “membrane permeability coefficient Pe compared with metoprolol” value in data set [1] is on record as “higher Pe values than the high permeability marker compound metoprolol”. Moreover, the IC50 in data set [2] is at least 1000 nM.

In the case of `Cn1cnc(C(=O)N(Cc2cccc(Cl)c2)C2CCOCC2)c1` [Compound 15], the “membrane permeability coefficient Pe compared with metoprolol” value in data set [1] was “higher Pe values than the high permeability marker compound metoprolol”. Besides, the half-inhibitory concentration (IC50) in data set [2] (15 min, room temperature) is 13.5 nM; in data set [2] it was under 100 nM.

As to `Cn1cnc(C(=O)N(Cc2cccc(C(F)(F)F)c2)C2CCOCC2)c1` [Compound 16], the “membrane permeability coefficient Pe compared with metoprolol” value in data set [1] was “higher Pe values than the high permeability marker compound metoprolol”. Moreover, the IC50 in data set [2] (15 min, room temperature) was 9.7 nM; in data set [2], under 100 nM.

`Cn1cnc(C(=O)N(Cc2ccc(F)c(Cl)c2)C2CCOCC2)c1` [Compound 24]: the “membrane permeability coefficient Pe compared with metoprolol” value in data set [1] is listed as “higher Pe values than the high permeability marker compound metoprolol”. The IC50 in data set [2] (15 min, room temperature) was 5.9 nM; in data set [2], under 100 nM.

In the case of `O=C(c1c[nH]cn1)N(Cc1cccc(Cl)c1)C1CCOCC1` [Compound 26], the “membrane permeability coefficient Pe compared with metoprolol” value in data set [1] is “higher Pe values than the high permeability marker compound metoprolol”. Besides, in data set [2], the half-maximal inhibitory concentration (IC50) was at least 1000 nM.

As for `Cn1cnc(C(=O)N(Cc2ccc(F)c(Cl)c2)C2CCOCC2)n1` [Compound 34], the “membrane permeability coefficient Pe compared with metoprolol” value in data set [1] is “higher Pe values than the high permeability marker compound metoprolol”. Further, the 50% inhibitory concentration (IC50) in data set [2] was under 100 nM.

`Cn1cnc(C(=O)N(Cc2ccc(F)c(C(F)(F)F)c2)C2CCOCC2)n1` [Compound 35]: in data set [1], the “membrane permeability coefficient Pe compared with metoprolol” value is reported as “higher Pe values than the high permeability marker compound metoprolol”. Further, the IC50 is 40.3 nM in data set [2] (15 min, room temperature) and under 100 nM in data set [2].

As to `Cn1cnc(C(=O)N(Cc2cccc(-c3ccccc3)c2)C2CCOCC2)n1` [Compound 55], in data set [1], the “membrane permeability coefficient Pe compared with metoprolol” value was “higher Pe values than the high permeability marker compound metoprolol”. Besides, the half-inhibitory concentration (IC50) in data set [2] (15 min, room temperature) was 28.7 nM; in data set [2], under 100 nM.

On to `Cn1cnc(C(=O)N(Cc2ccc(F)c(-c3ccccc3)c2)C2CCOCC2)n1` [Compound 59], for which, in data set [1], the “membrane permeability coefficient Pe compared with metoprolol” value is “higher Pe values than the high permeability marker compound metoprolol”. Further, the IC50 in data set [2] (15 min, room temperature) is 12.6 nM; in data set [2], under 100 nM.

In the case of `Cn1cnc(C(=O)N(Cc2ccc(F)c(-c3ccc(Cl)cc3)c2)C2CCOCC2)n1` [Compound 60], in data set [1], the “membrane permeability coefficient Pe compared with metoprolol” value is “higher Pe values than the high permeability marker compound metoprolol”. The IC50 was 30.6 nM in data set [2] (15 min, room temperature) and under 100 nM in data set [2].

Regarding `Cn1cnc(C(=O)N(Cc2ccc(F)c(-c3cccc(Cl)c3)c2)C2CCOCC2)n1` [Compound 61], in data set [1], the “membrane permeability coefficient Pe compared with metoprolol” value was “higher Pe values than the high permeability marker compound metoprolol”. Further, the IC50 in data set [2] (15 min, room temperature) is 15.9 nM; in data set [2], under 100 nM.

Turning to `Cn1cnc(C(=O)N(CCc2cccc(OC(F)(F)F)c2)C2CCOCC2)c1` [Compound 70], the “membrane permeability coefficient Pe compared with metoprolol” value in data set [1] was “higher Pe values than the high permeability marker compound metoprolol”. Moreover, the half-maximal inhibitory concentration (IC50) in data set [2] (15 min, room temperature) is 14.1 nM; in data set [2] it was under 100 nM.

Turning to `Cn1cnc(C(=O)N(Cc2ccc(F)c(-c3ccc(F)cc3)c2)C2CCOCC2)n1` [Compound 79], the “membrane permeability coefficient Pe compared with metoprolol” value in data set [1] is reported as “higher Pe values than the high permeability marker compound metoprolol”. Moreover, the IC50 in data set [2] (15 min, room temperature) is 32 nM; in data set [2], under 100 nM.

As to `Cn1cnc(C(=O)N(Cc2ccc(F)c(-c3ccc(F)c(Cl)c3)c2)C2CCOCC2)n1` [Compound 86], the “membrane permeability coefficient Pe compared with metoprolol” value in data set [1] was “higher Pe values than the high permeability marker compound metoprolol”. Further, the half-maximal inhibitory concentration (IC50) was 21.4 nM in data set [2] (15 min, room temperature) and under 100 nM in data set [2].

Turning to `Cn1cnc(C(=O)N(Cc2ccc(F)c(-c3cccc(OC(F)(F)F)c3)c2)C2CCOCC2)n1` [Compound 87], in data set [1], the “membrane permeability coefficient Pe compared with metoprolol” value is on record as “higher Pe values than the high permeability marker compound metoprolol”. For the same compound, the IC50 in data set [2] (15 min, room temperature) is 5.4 nM; in data set [2], under 100 nM.

`Cn1cnc(C(=O)N(Cc2ccc(F)c(-c3ccc(OC(F)(F)F)cc3)c2)C2CCOCC2)n1` [Compound 89]: the “membrane permeability coefficient Pe compared with metoprolol” value in data set [1] was “higher Pe values than the high permeability marker compound metoprolol”. Also, the IC50 in data set [2] (15 min, room temperature) is 22.4 nM; in data set [2] it was under 100 nM.

In the case of `CCOc1cccc(-c2cc(CN(C(=O)c3ncn(C)n3)C3CCOCC3)ccc2F)c1` [Compound 91], the “membrane permeability coefficient Pe compared with metoprolol” value in data set [1] is given as “higher Pe values than the high permeability marker compound metoprolol”. Also, the IC50 is 28.9 nM in data set [2] (15 min, room temperature) and under 100 nM in data set [2].

As to `Cn1cnc(C(=O)N(Cc2ccc(F)c(-c3cccc(C(F)(F)F)c3)c2)C2CCOCC2)n1` [Compound 95], in data set [1], the “membrane permeability coefficient Pe compared with metoprolol” value is listed as “higher Pe values than the high permeability marker compound metoprolol”. Further, the IC50 in data set [2] (15 min, room temperature) is 18.1 nM; in data set [2], under 100 nM.

Regarding `Cn1cnc(C(=O)N(Cc2ccc(F)c(-c3cccc(Oc4ccccc4)c3)c2)C2CCOCC2)n1` [Compound 96], in data set [1], the “membrane permeability coefficient Pe compared with metoprolol” value is on record as “higher Pe values than the high permeability marker compound metoprolol”. For the same compound, the IC50 in data set [2] is under 100 nM.

As to `Cn1cnc(C(=O)N(Cc2ccc(F)c(-c3cccc(CCO)c3)c2)C2CCOCC2)c1` [Compound 99], the “membrane permeability coefficient Pe compared with metoprolol” value in data set [1] is “higher Pe values than the high permeability marker compound metoprolol”. The IC50 was 9 nM in data set [2] (15 min, room temperature) and under 100 nM in data set [2].

As to `Cn1cnc(C(=O)N(Cc2ccc(F)c(-c3ccc(OC(F)(F)F)cc3)c2)C2CCOCC2)c1` [Compound 100], in data set [1], the “membrane permeability coefficient Pe compared with metoprolol” value is given as “higher Pe values than the high permeability marker compound metoprolol”. For the same compound, the half-inhibitory concentration (IC50) in data set [2] (15 min, room temperature) is 6 nM; in data set [2], under 100 nM.

For the compound `Cn1cnc(C(=O)N(Cc2ccc(F)c(-c3ccc(F)cc3)c2)C2CCOCC2)c1` [Compound 103], the “membrane permeability coefficient Pe compared with metoprolol” value in data set [1] is “higher Pe values than the high permeability marker compound metoprolol”. The IC50 is 8.2 nM in data set [2] (15 min, room temperature) and under 100 nM in data set [2].

As to `Cn1cnc(C(=O)N(Cc2ccc(F)c(Br)c2)C2CCOC(C)(C)C2)c1` (stereo not drawn) [Compound 110], the “membrane permeability coefficient Pe compared with metoprolol” value in data set [1] is reported as “higher Pe values than the high permeability marker compound metoprolol”.
